Data published in paper PMC7915940, “Synthesis, Antitumor and Antibacterial Studies of New Shortened Analogues of (KLAKLAK)2-NH2 and Their Conjugates Containing Unnatural Amino Acids” (Molecules, 2021).
Read-outs that look alike come from different tables or passages of the source. Non-standard residues stand in square brackets, D forms with d. Residues, ends and D or L forms follow the SMILES beside them. *: point of attachment. Acetyl(1,8-naphthalimido) = O=C1c2cccc3cccc(c23)C(=O)N1CC(=O)*; Caffeoyl = O=C(/C=C/c1ccc(O)c(O)c1)*; Nle = CCCC[C@H](N)C(=O)O; βAla = NCCC(=O)O

Tests used:
MDA-MB-231 cells = type: cell-based, human; conditions: 72 h
Protocol: (§1) The compounds were studied for antiproliferative activity by standard MTT dye reduction assay. Cell cultures from different cell line types (MCF-10A, MCF-7 and MDA-MB-231) were incubated with the test substances at a concentration of 15 to 2000 μM for 72 h. The antiproliferative activity expressed in % relative to the negative control was determined. The obtained results are shown on Figure 2. MCF-10A is a reliable model for normal human mammary epithelial cells, which serves as a control in experiments to determine antitumor activity. The IC50 values, found in MCF-10A, are used to calculate a selective index (SI), which assesses the potential of a substance to be used as an antitumor agent. We used the following formula to calculate the selective index SI = IC50 of MCF-10A / IC50 of tumor cells. The highest selective index with respect to MCF-7 is shown by the substances: Si3 (SI = 8.35), Si11 (SI = 2.62) and Si1 (SI = 1.24).
(§2) The antiproliferative activity testing was performed on cell cultures from several human cell lines using the standard MTT-dye reduction assay, described by Mosmann. The assay is based on the metabolism of the tetrazolium salt MTT to insoluble formazan by mitochondrial reductases. The formazan concentration can be determined spectrophotometrically. The measured absorption is an indicator of cell viability and metabolic activity. Cell lines: mammary gland type A adenocarcinoma ER+, PR+, HER2- (MCF-7), triple-negative breast cancer ER-, PR-, HER2- (MDA-MB-231) and breast, non-tumorigenic epithelial cell line (MCF-10A) were used in experiments. The cell lines were routinely grown as monolayers in 75 cm^2 tissue culture flasks under standard conditions (described above). Cells were plated at a density of 1 × 10^3 cells in 100 µL in each well of 96-well flat-bottomed microplates and allowed to adhere for 24 h before treatment with test compounds. A concentration range from 15 to 2000 μM was applied for 72 h. The formazan absorption was registered using a microplate reader at λ = 540 nm. Antiproliferative activities were expressed as IC50 values (concentrations required for 50% inhibition of cell growth), calculated using non-linear regression analysis (GraphPad Software, San Diego, CA, USA).

Escherichia coli K12 407 = type: cell-based; conditions: for antibacterial effect, zones free of microbial growth (in words): agar diffusion, E. coli K12 407
Protocol: Antibacterial properties of the obtained new peptides and their conjugates were tested against E. coli K12 407 strain. Antibacterial activity of tested compounds was proven through appear of free zone around the loaded disk-paper by means of agar-diffusion method (Figure 3).
All newly synthesized derivatives of (KLAKLAK)2-NH2 at two concentrations 10 μM and 20 μM, were tested against facultative anaerobic gram-negative Esherichia coli NBIMCC K12 407. The strains were obtained from the culture collection of Bulgarian National Bank for Industrial Microorganisms and Cell Cultures (Sofia, Bulgaria) and were cultured in Luria-Bertani (LB) medium (Mumbai, India). The microbiological tests were performed using the agar diffusion method. The overnight pure cultures from tested strains were prepared in liquid LB-medium. A single colony was used for inoculating the liquid LB medium in order to maintain initial bacterial concentration of 1 × 10^7 cfu/mL. 100 µL of bacterial suspensions were seeded on agar plates with solid LB-medium. After 30 min, sterile paper disks 6 mm in diameter were soaked with tested samples in amount of 6 µL and placed on the agar petri dishes surface. The plates were incubated for 24 h at 37 °C. The appeared inhibition zones and their size were measured. The sterile paper disks soaked with water was used as blank. Mean values were calculated by performing the experiments in triplicates.

[1] = In vitro cytotoxicity testing (3T3 NRU test); type: cell-based; conditions: mouse
Protocol: The newly synthesized compounds were studied for cytotoxicity by standard method (3T3 NRU-test). The cells were incubated with the test substances at a concentration of 30 to 4000 μM for 24 h. The cytotoxicity expressed, in % relative to the negative control was determined.
The cytotoxicity testing was performed as described by Borenfreund et al. and the latest modification of the validated BALB/3T3 clone A31 Neutral Red Uptake Assay (3T3 NRU test) for cytotoxicity testing. BALB/3T3, clone A31 mouse embryo cells were grown as monolayer in 75 cm^2 tissue culture flasks in DMEM high-glucose (4.5 g/L), supplemented with 10% FBS and antibiotics (Sigma-Aldrich, Schnelldorf, Germany). Cultures were maintained at 37.5 °C in a humidified atmosphere under 5% CO2. Cells were plated at a density of 1 × 10^4 cells in 100 μL culture medium in each well of 96-well flat-bottomed microplates (Biologix, Lenexa, KS, USA) and allowed to adhere for 24 h. The test compounds, dissolved in DMSO and diluted in culture medium to concentration range 30 to 4000 μM were then added and the cell cultures were incubated for additional 24 h. […] After treatment with Neutral Red medium, washing and treatment with the Ethanol/Acetic acid solution (NR Desorb), the absorption was measured on a TECAN microplate reader (TECAN, Grödig, Austria) at wavelength 540 nm.

MCF-7 cells = type: cell-based, human; conditions: for selectivity with respect to the studied tumor cell lines (in words): MCF-7 and MDA-MB-231 versus MCF-10A
Protocol: as §1, §2

MCF-10A cells = type: cell-based, human; conditions: 72 h
Protocol: as §1, §2

[2] = MDA-MB-231, MTT, 15 to 2000 μM, read-out: IC50 of Mean ± SD, Antiproliferative Activity, MDA-MB-231

SMILES | IC50 (MDA-MB-231 cells; [2]) [µM] | Average inhibition zones size (Escherichia coli K12 407; 20 μM, E. coli K12 407, 24 h at 37 °C, three replicates ± SD) [mm] | antibacterial effect, zones free of microbial growth (in words) (Escherichia coli K12 407) | IC50 at 24 h ([1]; BALB/3T3 cells, NRU, 24 h, 30 to 4000 μM, read-out: IC50 of Mean ± SD, Cytotoxicity, BALB/3T3) [µM] | IC50 (MCF-7 cells; MCF-7, MTT, 72 h, 15 to 2000 μM, read-out: IC50 of Mean ± SD, Antiproliferative Activity, MCF-7) [µM] | selective index (SI) with respect to MCF-7 (MCF-7 cells; SI = IC50 of MCF-10A / IC50 of MCF-7) | IC50 (MCF-10A cells; MCF-10A, MTT, 15 to 2000 μM, read-out: IC50 of Mean ± SD, Antiproliferative Activity, MCF-10A) [µM] | IC50 at 24 h [1] [µM] | IC50 (MCF-7 cells; 72 h) [µM] | selectivity with respect to the studied tumor cell lines (in words) (MCF-7 cells) | IC50 (MDA-MB-231 cells) [µM] | IC50 (MCF-10A cells) [µM] | selective index (SI) with respect to MCF-7 (MCF-7 cells; 72 h) | activity against Escherichia coli K12 407 (in words) (Escherichia coli K12 407; 20 μM) | melting point [°C]
N.N.[Cl][Pt][Cl] [Cisplatin, reference compound] | 1.83 ± 0.13 | – | – | – | – | – | – | – | – | – | – | – | – | – | –
CC(C)C[C@H](NC(=O)[C@H](CCCCN)NC(=O)[C@H](C)NC(=O)[C@H](CC(C)C)NC(=O)[C@H](CCCCN)NC(=O)[C@H](CCCCN)NC(=O)[C@H](C)NC(=O)[C@H](CC(C)C)NC(=O)[C@H](CCCCN)NC(=O)[C@H](C)NC(=O)[C@H](CC(C)C)NC(=O)[C@@H](N)CCCCN)C(=O)N[C@@H](C)C(=O)N[C@@H](CCCCN)C(N)=O [Si1, (KLAKLAK)2-NH2] | 746 ± 7.6 | 5 ± 0.15 | clear zones free of microbial growth | 365 ± 4.08 | 124 ± 8.12 | 1.24 | 154 ± 6.53 | – | – | – | – | – | – | – | –
CC(C)C[C@H](NC(=O)[C@H](CCCCN)NC(=O)CCNC(=O)[C@H](CC(C)C)NC(=O)[C@H](CCCCN)NC(=O)CN1C(=O)c2cccc3cccc(c23)C1=O)C(=O)NCCC(=O)N[C@@H](CCCCN)C(N)=O [Si2, 1,8-naphthalimideG-KLβAKLβAK-NH2] ({Acetyl(1,8-naphthalimido)}-KL[βAla]KL[βAla]K-NH2) | – | – | – | – | – | – | – | 1430 ± 48.4 | 663 ± 20 | no significant SI is observed | 840 ± 21.2 | 666 ± 20.9 | – | – | –
CC(C)C[C@H](NC(=O)[C@H](CCCCN)NC(=O)CCNC(=O)[C@H](CC(C)C)NC(=O)[C@@H](N)CCCCN)C(=O)NCCC(=O)N[C@@H](CCCCN)C(N)=O [Si3, KLβAKLβAK-NH2] (H-KL[βAla]KL[βAla]K-NH2; N-terminus assumed) | – | – | – | – | – | – | – | 2870 ± 130 | 176 ± 4.66 | significant selective index | > 2000 | 1470 ± 104 | 8.33 | – | –
CC(C)C[C@H](NC(=O)[C@H](CCCCN)NC(=O)[C@H](C)NC(=O)[C@H](CC(C)C)NC(=O)[C@@H](N)CCCCN)C(=O)N[C@@H](C)C(=O)N[C@@H](CCCCN)C(N)=O [Si6, KLAKLAK-NH2] (H-KLAKLAK-NH2; N-terminus assumed) | – | – | clear zones free of microbial growth | – | – | – | – | > 4000 | > 2000 | do not show selectivity | > 2000 | > 2000 | – | moderate activity | –
CC(C)C[C@H](NC(=O)[C@H](CCCCN)NC(=O)CN1C(=O)c2cccc3cccc(c23)C1=O)C(=O)N[C@@H](C)C(=O)N[C@@H](CCCCN)C(=O)N[C@@H](CC(C)C)C(=O)N[C@@H](C)C(=O)N[C@@H](CCCCN)C(N)=O [Si7, 1,8-naphthalimideG-KLAKLAK-NH2] ({Acetyl(1,8-naphthalimido)}-KLAKLAK-NH2) | – | – | – | – | – | – | – | 3420 ± 51.3 | 1200 ± 132 | do not show selectivity | > 2000 | 1140 ± 64.5 | – | – | –
CC(C)C[C@H](NC(=O)[C@H](CCCCN)NC(=O)/C=C/c1ccc(O)c(O)c1)C(=O)N[C@@H](C)C(=O)N[C@@H](CCCCN)C(=O)N[C@@H](CC(C)C)C(=O)N[C@@H](C)C(=O)N[C@@H](CCCCN)C(N)=O [Si8, Caf-KLAKLAK-NH2] (Caffeoyl-KLAKLAK-NH2) | – | – | clear zones free of microbial growth | – | – | – | – | 710 ± 11.9 | 129 ± 8.03 | do not show selectivity | 514 ± 26.8 | 136 ± 7.09 | – | – | 154
CC(C)C[C@H](NC(=O)[C@H](CCCCN)NC(=O)/C=C/c1ccc(O)c(O)c1)C(=O)NCCC(=O)N[C@@H](CCCCN)C(=O)N[C@@H](CC(C)C)C(=O)NCCC(=O)N[C@@H](CCCCN)C(N)=O [Si11, Caf-KLβAKLβAK-NH2] (Caffeoyl-KL[βAla]KL[βAla]K-NH2) | – | – | – | – | – | – | – | 742 ± 18.5 | 229 ± 7.18 | significant selective index | 1090 ± 70.7 | 597 ± 53 | 2.62 | – | –
CCCC[C@H](NC(=O)[C@H](CCCCN)NC(=O)[C@H](C)NC(=O)[C@H](CCCC)NC(=O)[C@@H](N)CCCCN)C(=O)N[C@@H](C)C(=O)N[C@@H](CCCCN)C(N)=O [Si13, KnLAKnLAK-NH2] (H-K[Nle]AK[Nle]AK-NH2; N-terminus assumed) | – | – | – | – | – | – | – | > 4000 | 1700 ± 112 | – | > 2000 | > 2000 | – | – | –
CCCC[C@H](NC(=O)[C@H](CCCCN)NC(=O)CN1C(=O)c2cccc3cccc(c23)C1=O)C(=O)N[C@@H](C)C(=O)N[C@@H](CCCCN)C(=O)N[C@@H](CCCC)C(=O)N[C@@H](C)C(=O)N[C@@H](CCCCN)C(N)=O [Si14, 1,8-naphthalimideG-KnLAKnLAK-NH2] ({Acetyl(1,8-naphthalimido)}-K[Nle]AK[Nle]AK-NH2) | – | – | clear zones free of microbial growth | – | – | – | – | 2890 ± 61.4 | 593 ± 60.3 | No selectivity | 1050 ± 49.8 | 631 ± 51.2 | – | moderate activity | –
CCCC[C@H](NC(=O)[C@H](CCCCN)NC(=O)/C=C/c1ccc(O)c(O)c1)C(=O)N[C@@H](C)C(=O)N[C@@H](CCCCN)C(=O)N[C@@H](CCCC)C(=O)N[C@@H](C)C(=O)N[C@@H](CCCCN)C(N)=O [Si15, Caf-KnLAKnLAK-NH2] (Caffeoyl-K[Nle]AK[Nle]AK-NH2) | – | – | – | – | – | – | – | 1514 ± 12.2 | 140 ± 7.12 | No selectivity | 346 ± 7.91 | 147 ± 7.96 | – | – | –
